Measurements published in the supplement of paper PMC9663587.

Columns and labels:
[1] = system: MDAMB157; assay: GRmax, 72 h; higher = less effect;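 further: breast cell lines in 384-well plates, nine doses across a 10^4 range, Dye Drop imaging of viable cells vs DMSO and time-zero plates, GR 0 means no net growth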
[2] = system: HCC1500; assay: GRmax, 72 h; higher = less effect;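 further: breast cell lines in 384-well plates, nine doses across a 10^4 range, Dye Drop imaging of viable cells vs DMSO and time-zero plates, GR 0 means no net growth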
[3] = system: HCC1428; assay: GRmax, 72 h; higher = less effect;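 further: breast cell lines in 384-well plates, nine doses across a 10^4 range, Dye Drop imaging of viable cells vs DMSO and time-zero plates, GR 0 means no net growth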
[4] = system: SUM229PE; assay: area over the GR curve, 72 h; higher = more effect;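 further: Dye Drop or Deep Dye Drop imaging of viable cells in 384-well plates (Hoechst nuclei, LIVE/DEAD dye), nine half-log doses, GR normalized to DMSO controls and time-zero plates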
[5] = system: HCC70; assay: area over the GR curve, 72 h; higher = more effect;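 further: Dye Drop or Deep Dye Drop imaging of viable cells in 384-well plates (Hoechst nuclei, LIVE/DEAD dye), nine half-log doses, GR normalized to DMSO controls and time-zero plates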
[6] = system: UACC893; assay: area over the GR curve, 72 h; higher = more effect;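 further: Dye Drop or Deep Dye Drop imaging of viable cells in 384-well plates (Hoechst nuclei, LIVE/DEAD dye), nine half-log doses, GR normalized to DMSO controls and time-zero plates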
[7] = system: SUM185PE; assay: area over the GR curve, 72 h; higher = more effect;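 further: Dye Drop or Deep Dye Drop imaging of viable cells in 384-well plates (Hoechst nuclei, LIVE/DEAD dye), nine half-log doses, GR normalized to DMSO controls and time-zero plates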
[8] = system: MDAMB157; assay: area over the GR curve, 72 h; higher = more effect
[9] = system: MDAMB361; assay: area over the GR curve, 72 h; higher = more effect
[10] = system: HCC1419; assay: area over the GR curve, 72 h; higher = more effect
[11] = system: UACC812; assay: area over the GR curve, 72 h; higher = more effect

COc1cccc2c1C(=O)c1c(O)c3c(c(O)c1C2=O)C[C@@](O)(C(=O)CO)C[C@@H]3O[C@H]1C[C@H](N)[C@H](O)[C@H](C)O1 [Doxorubicin] (max 3.162 µM)
GRmax, 72 h [1]: -0.777 GR
GRmax, 72 h [2]: -0.713 GR
GRmax, 72 h [3]: -0.74 GR
area over the GR curve [4]: 0.453 GR
area over the GR curve [5]: 0.775 GR
area over the GR curve [6]: 0.611 GR
area over the GR curve [7]: 0.0881 GR
area over the GR curve [8]: 0.966 GR
area over the GR curve [9]: 0.912 GR
area over the GR curve [10]: 0.59 GR
area over the GR curve [11]: 1.18 GR

COc1cc([C@@H]2c3cc4c(cc3[C@@H](O[C@@H]3O[C@@H]5CO[C@@H](C)O[C@H]5[C@H](O)[C@H]3O)[C@H]3COC(=O)[C@H]23)OCO4)cc(OC)c1O [Etoposide] (max 10 µM)
GRmax, 72 h [1]: -0.434 GR
GRmax, 72 h [2]: -0.0766 GR
GRmax, 72 h [3]: -0.032 GR
area over the GR curve [5]: 0.454 GR
area over the GR curve [8]: 0.609 GR
area over the GR curve [9]: 0.343 GR
area over the GR curve [10]: 0.32 GR

CO[C@H]1C[C@@H]2CC[C@@H](C)[C@@](O)(O2)C(=O)C(=O)N2CCCC[C@H]2C(=O)O[C@H]([C@H](C)C[C@@H]2CC[C@@H](OCCO)[C@H](OC)C2)CC(=O)[C@H](C)/C=C(\C)[C@@H](O)[C@@H](OC)C(=O)[C@H](C)C[C@H](C)/C=C/C=C/C=C/1C [Everolimus] (max 10 µM)
GRmax, 72 h [1]: 0.481 GR
GRmax, 72 h [2]: -0.31 GR
GRmax, 72 h [3]: 0.346 GR
area over the GR curve [4]: 0.226 GR
area over the GR curve [5]: 0.476 GR
area over the GR curve [6]: 0.714 GR
area over the GR curve [7]: 0.2 GR
area over the GR curve [8]: 0.394 GR
area over the GR curve [9]: 0.85 GR
area over the GR curve [10]: 0.724 GR
area over the GR curve [11]: 0.984 GR

CC(C)n1nc(-c2ccc3oc(N)nc3c2)c2c(N)ncnc21 [INK128/MLN0128] (max 3.162 µM)
GRmax, 72 h [1]: -0.0331 GR
GRmax, 72 h [2]: -0.469 GR
GRmax, 72 h [3]: -0.0001 GR
area over the GR curve [4]: 0.379 GR
area over the GR curve [5]: 0.702 GR
area over the GR curve [6]: 0.745 GR
area over the GR curve [7]: 0.609 GR
area over the GR curve [8]: 0.514 GR
area over the GR curve [9]: 1.1 GR
area over the GR curve [10]: 0.763 GR
area over the GR curve [11]: 1.22 GR

CC(C)NC[C@@H](C(=O)N1CCN(c2ncnc3c2[C@H](C)C[C@H]3O)CC1)c1ccc(Cl)cc1 [Ipatasertib/GDC0068] (max 10 µM)
GRmax, 72 h [1]: 0.596 GR
GRmax, 72 h [2]: 1.08 GR
GRmax, 72 h [3]: 0.991 GR
area over the GR curve [4]: 0.1 GR
area over the GR curve [5]: 0.488 GR
area over the GR curve [6]: 0.529 GR
area over the GR curve [7]: 0.155 GR
area over the GR curve [8]: 0.0813 GR
area over the GR curve [9]: 0.453 GR
area over the GR curve [10]: 0.0911 GR
area over the GR curve [11]: 0.173 GR

CCNC(=O)c1noc(-c2cc(C(C)C)c(O)cc2O)c1-c1ccc(CN2CCOCC2)cc1 [Luminespib/NVP-AUY922] (max 1 µM)
GRmax, 72 h [1]: -0.049 GR
GRmax, 72 h [2]: -0.224 GR
GRmax, 72 h [3]: -0.0043 GR
area over the GR curve [4]: 0.729 GR
area over the GR curve [5]: 0.732 GR
area over the GR curve [6]: 1.07 GR
area over the GR curve [7]: 0.673 GR
area over the GR curve [8]: 0.615 GR
area over the GR curve [9]: 0.978 GR
area over the GR curve [10]: 0.641 GR
area over the GR curve [11]: 0.881 GR

CCOc1cc2ncc(C#N)c(Nc3ccc(OCc4ccccn4)c(Cl)c3)c2cc1NC(=O)/C=C/CN(C)C [Neratinib/HKI272] (max 3.162 µM)
GRmax, 72 h [1]: 0.117 GR
GRmax, 72 h [2]: -0.287 GR
GRmax, 72 h [3]: -0.0412 GR
area over the GR curve [4]: 0.24 GR
area over the GR curve [5]: 0.317 GR
area over the GR curve [6]: 1.17 GR
area over the GR curve [7]: 0.255 GR
area over the GR curve [8]: 0.191 GR
area over the GR curve [9]: 0.425 GR
area over the GR curve [10]: 0.993 GR
area over the GR curve [11]: 1.03 GR

O=C(c1cc(Cc2n[nH]c(=O)c3ccccc23)ccc1F)N1CCN(C(=O)C2CC2)CC1 [Olaparib/AZD2281] (max 10 µM)
GRmax, 72 h [1]: 0.158 GR
GRmax, 72 h [2]: 0.274 GR
GRmax, 72 h [3]: 0.118 GR
area over the GR curve [4]: 0.0365 GR
area over the GR curve [5]: -0.0522 GR
area over the GR curve [6]: 0.0342 GR
area over the GR curve [7]: -0.0156 GR
area over the GR curve [8]: 0.115 GR
area over the GR curve [9]: 0.0967 GR
area over the GR curve [10]: 0.018 GR
area over the GR curve [11]: -0.0835 GR

CC(=O)O[C@H]1C(=O)[C@@]2(C)[C@H]([C@H](OC(=O)c3ccccc3)[C@]3(O)C[C@H](OC(=O)[C@H](O)[C@@H](NC(=O)c4ccccc4)c4ccccc4)C(C)=C1C3(C)C)[C@]1(OC(C)=O)CO[C@@H]1C[C@@H]2O [Paclitaxel] (max 1 µM)
GRmax, 72 h [1]: -0.67 GR
GRmax, 72 h [2]: -0.0589 GR
GRmax, 72 h [3]: 0.0645 GR
area over the GR curve [4]: 0.91 GR
area over the GR curve [5]: 0.977 GR
area over the GR curve [6]: 0.905 GR
area over the GR curve [7]: 0.479 GR
area over the GR curve [8]: 0.946 GR
area over the GR curve [9]: 0.974 GR
area over the GR curve [10]: 0.47 GR
area over the GR curve [11]: 1.44 GR

CS(=O)(=O)N1CCN(Cc2cc3nc(-c4cccc5[nH]ncc45)nc(N4CCOCC4)c3s2)CC1 [Pictilisib/GDC0941] (max 10 µM)
GRmax, 72 h [1]: 0.187 GR
GRmax, 72 h [2]: -0.132 GR
GRmax, 72 h [3]: 0.192 GR
area over the GR curve [4]: 0.137 GR
area over the GR curve [5]: 0.573 GR
area over the GR curve [6]: 0.323 GR
area over the GR curve [7]: 0.458 GR
area over the GR curve [8]: 0.258 GR
area over the GR curve [9]: 0.716 GR
area over the GR curve [10]: 0.512 GR
area over the GR curve [11]: 0.6 GR

CN1CCN(CCOc2cc(OC3CCOCC3)c3c(Nc4c(Cl)ccc5c4OCO5)ncnc3c2)CC1 [Saracatinib/AZD0530] (max 10 µM)
GRmax, 72 h [1]: 0.355 GR
GRmax, 72 h [2]: -0.197 GR
GRmax, 72 h [3]: 0.669 GR
area over the GR curve [4]: 0.131 GR
area over the GR curve [5]: 0.573 GR
area over the GR curve [6]: 0.11 GR
area over the GR curve [7]: 0.279 GR
area over the GR curve [8]: 0.17 GR
area over the GR curve [9]: 0.406 GR
area over the GR curve [10]: 0.264 GR
area over the GR curve [11]: 0.875 GR

Cc1cc(C(C)Nc2ccccc2)c2nc(N3CCOCC3)cc(=O)n2c1 (centres undefined) [TGX221] (max 10 µM)
GRmax, 72 h [1]: 0.824 GR
GRmax, 72 h [2]: 0.503 GR
GRmax, 72 h [3]: 0.769 GR
area over the GR curve [4]: -0.0167 GR
area over the GR curve [5]: 0.467 GR
area over the GR curve [6]: -0.111 GR
area over the GR curve [7]: 0.163 GR
area over the GR curve [8]: -0.005 GR
area over the GR curve [9]: -0.0911 GR
area over the GR curve [10]: -0.0488 GR
area over the GR curve [11]: 0.523 GR

Cc1nc(-c2cn3c(n2)-c2ccc(-c4cnn(C(C)(C)C(N)=O)c4)cc2OCC3)n(C(C)C)n1 [Taselisib/GDC0032] (max 10 µM)
GRmax, 72 h [1]: 0.211 GR
GRmax, 72 h [2]: -0.233 GR
GRmax, 72 h [3]: 0.173 GR
area over the GR curve [4]: 0.397 GR
area over the GR curve [5]: 0.548 GR
area over the GR curve [6]: 1.43 GR
area over the GR curve [7]: 0.879 GR
area over the GR curve [8]: 0.339 GR
area over the GR curve [9]: 1.41 GR
area over the GR curve [10]: 0.852 GR
area over the GR curve [11]: 0.693 GR

O=C1NC(=O)[C@@H](c2cn3c4c(cccc24)CCC3)[C@@H]1c1c[nH]c2ccccc12 [Tivantinib/ARQ197] (max 10 µM)
GRmax, 72 h [1]: -0.482 GR
GRmax, 72 h [2]: -0.33 GR
GRmax, 72 h [3]: 0.0341 GR
area over the GR curve [4]: 0.661 GR
area over the GR curve [5]: 0.474 GR
area over the GR curve [6]: 0.405 GR
area over the GR curve [7]: 0.239 GR
area over the GR curve [8]: 0.388 GR
area over the GR curve [9]: 0.514 GR
area over the GR curve [10]: 0.238 GR
area over the GR curve [11]: 0.667 GR

CC[C@@]1(O)C(=O)OCc2c1cc1n(c2=O)Cc2cc3c(CN(C)C)c(O)ccc3nc2-1 [Topotecan] (max 10 µM)
GRmax, 72 h [1]: -0.833 GR
GRmax, 72 h [2]: -0.801 GR
GRmax, 72 h [3]: -0.376 GR
area over the GR curve [5]: 1.06 GR
area over the GR curve [8]: 1.08 GR
area over the GR curve [9]: 1.13 GR
area over the GR curve [10]: 0.99 GR

Nc1ccc(-c2ccc3ncc4ccc(=O)n(-c5cccc(C(F)(F)F)c5)c4c3c2)cn1 [Torin2] (max 1 µM)
GRmax, 72 h [1]: -0.216 GR
GRmax, 72 h [2]: -0.497 GR
GRmax, 72 h [3]: -0.0145 GR
area over the GR curve [4]: 0.345 GR
area over the GR curve [5]: 0.645 GR
area over the GR curve [6]: 0.698 GR
area over the GR curve [7]: 0.473 GR
area over the GR curve [8]: 0.41 GR
area over the GR curve [9]: 0.869 GR
area over the GR curve [10]: 0.634 GR
area over the GR curve [11]: 0.9 GR

CC[C@@H]1C(=O)N(C)c2cnc(Nc3ccc(C(=O)N[C@H]4CC[C@H](N5CCN(CC6CC6)CC5)CC4)cc3OC)nc2N1C(C)C [Volasertib/BI6727] (max 1 µM)
GRmax, 72 h [1]: -0.664 GR
GRmax, 72 h [2]: 0.286 GR
GRmax, 72 h [3]: -0.0388 GR
area over the GR curve [4]: 0.605 GR
area over the GR curve [5]: 0.579 GR
area over the GR curve [6]: 0.813 GR
area over the GR curve [7]: 0.286 GR
area over the GR curve [8]: 0.851 GR
area over the GR curve [9]: 0.793 GR
area over the GR curve [10]: 0.325 GR
area over the GR curve [11]: 0.734 GR
